Laboratory results published in patent publication US20080112967A1, “Process for Refining Ganoderma Spore Polysacchoride” (NANJING ZHONGKE GROUP CORP., LTD., priority 2006, published 2008).

Experiments:
[1] = system: mouse transplantation tumor S180; assay: inhibitory action of No. 2, intravenous injection administration, on mouse transplantation tumor S180; conditions: masculine reference, dosage 30 mg/kg, once on alternate days, 4 times
Source text: (§1) 1.1 The test medicine: the Ganoderma spore polysaccharide of the present invention (produced by the method of the present invention, it is named No.2.).
(§2) 1.2 Animal: ICR mouse, 18-22 g, half male and half female, the mouses is provided by China drug section university animal laboratory. The number of ertificate of conformity is: SCXK(SU)2002-0011. The feedstuff is diet pellet, it is provided by China drug section university animal laboratory. Breeding condition: air conditioning room, Temperature 18-24° C., Relative humidity: 70%.
(§3) 1.3 Masculine drug: endoxan (CTX), HENGRUI MEDICINE CO LTD JIANG.
3.2.1 administration route: intravenous injection (iv)
3.2.2 administration period: Inoculate S180 entity type by transplantation tumor methodology, after inoculating 24 h, administrate to the mouse and ip administrate, once on alternate days, administrate for 4 times, at the next day when the administration is stopped, kill the mouse.
(§4) 3.2.3 dosage, there are four groups:
(§5) blank reference group (normal saline)
(§6) 3.2.4 experimental method: Take 40 above-mentioned mouses (S180 entity type inoculated by transplantation tumor methodology), after the mouse is inoculated, weigh the mouse, and divide them into 4 groups, there is 10 mouses in every groups, half male and half female, blank reference group and CTX group are negative and masculine reference group. After inoculating 24 h, administrate to the mouse and ip administrate, once on alternate days, administrate for 4 times, at the next day when the administration is stopped, weigh the mouses and kill them, weigh the weight of tumor, statisticaly treat the obtained data t verify.

[2] = system: mouse transplantation tumor Heps; assay: inhibitory action of No. 2, intravenous injection administration, on mouse transplantation tumor Heps; conditions: masculine reference, dosage 30 mg/kg, once on alternate days, 4 times
Source text: as §1, §2, §3
3.1 the inhibitory action of the No. 2 intravenous injection (iv) administration to the mouse transplantation tumor Heps.
3.1.1 administration route: intravenous injection (iv)
3.1.2 administration period: Inoculate Heps entity type by transplantation tumor methodology, after inoculating 24 h, administrate to the mouse and ip administrate, once on alternate days, administrate for 4 times, at the next day when the administration is stopped, kill the mouse.
(§7) 3.1.3 dosage, there are four groups:
as §5
as §6, with “CTX: 20 mg/kg 3.1.4” for “3.2.4”, “(Heps” for “(S180”, “statistically” for “statisticaly”, “(t verify).” for “t verify.”

[3] = system: mouse transplantation tumor S180; assay: inhibitory action of No. 1, oral pour stomach administration, on mouse transplantation tumor S180; conditions: masculine reference, dosage 30 mg/kg, once a day, 7 times
Procedure: (§8) 1.1 The test medicine: the reference Ganoderma spore polysaccharide (it is named No. 1), it is produced by the method disclosed in the CN1483743, the specific steps is: add Ganoderma spore powder into distilled water, the added amount can shape the Ganoderma spore, shake it up, pelletize, dry in the air, use CO2 supercritical extraction method to remove fat, weigh 10 kg Ganoderma spore which is removed fat, add it into the abstraction pot, add 150 Kg water, soak it for 2 h, heat to boil, keep reflux for 4 h, centrifuge the extracting solution, condense the filtrate to 5 Kg, add three times 95% ethanol, lay it 24 h, filter the polysaccharide precipitation, dry the precipitation so as to obtain the Ganoderma spore polysaccharide.
(§9) 1.2 Animal:ICR mouse, 18-22 g, half male and half female, the mouses is provided by China drug section university animal laboratory. The number of certificate of conformity is: SCXK (SU)2002-0011. The feedstuff is diet pellet, it is provided by China drug section university animal laboratory. Breeding condition: air conditioning room, Temperature 18-24° C., Relative humidity: 70%.
(§10) 1.3 Masculine Drug: endoxan (CTX), HENGRUI MEDICINE CO LTD JIANG. Specification: 200 mg/bottle, Batch Number: 06060121.
3.2.1 administration route: oral pour stomach […]
3.2.2 administration period: Inoculate S180 entity type by transplantation tumor methodology, after inoculating 24 h, administrate to the mouse and ip administrate, once a day, administrate for 7 times, at the next day when the administration is stopped, kill the mouse.
as §4
(§11) blank reference group(normal saline)
as §6, with “once a day,” for “once on alternate days,”, “for 7” for “for 4”

[4] = system: mouse transplantation tumor Heps; assay: inhibitory action of No. 1, oral pour stomach administration, on mouse transplantation tumor Heps; conditions: masculine reference, dosage 30 mg/kg, once a day, 7 times
Procedure: as §8, §9, §10
3.1.1 administration route: oral pour stomach (ip)
3.1.2 administration period: Inoculate Heps entity type by transplantation tumor methodology, after inoculating 24 h, administrate to the mouse and ip administrate, once a day, administrate for 7 times, at the next day when the administration is stopped, kill the mouse.
as §7, §11
as §6, with “3.1.4 experimental” for “3.2.4 experimental”, “mouses (Heps” for “mouses (S180”, “once a day,” for “once on alternate days,”, “for 7” for “for 4”, “data (t verify).” for “data t verify.”

## O=P1(N(CCCl)CCCl)NCCCO1 (stereo not shown) [CTX, endoxan]
[1]
  The rate of inhibiting tumor (%): 65.81%
[1]; X ± SD, n = 10
  Weight(g) After anministration: 24.3 ± 1.68 g
  Weight(g) Before anministration: 20.1 ± 0.94 g
  the weight of tumor: 0.51 ± 0.18 g
[2]
  The rate of inhibiting tumor (%): 64.60%
[2]; X ± SD, n = 10
  Weight(g) After anministration: 24.3 ± 2.41 g
  Weight(g) Before anministration: 20.1 ± 1.30 g
  the weight of tumor: 0.43 ± 0.15 g
[3]
  The rate of inhibiting tumor (%): 65.81%
[3]; X ± SD, n = 10
  Weight(g) After anministration: 24.3 ± 1.68 g
  Weight(g) Before anministration: 20.1 ± 0.94 g
  the weight of tumor: 0.51 ± 0.18 g
[4]
  The rate of inhibiting tumor (%): 64.60%
[4]; X ± SD, n = 10
  Weight(g) After anministration: 24.3 ± 2.41 g
  Weight(g) Before anministration: 20.1 ± 1.30 g
  the weight of tumor: 0.43 ± 0.15 g
